Data reported in patent US9012431B2, “Boron-containing small molecules as anti-inflammatory agents” (Anacor Pharmaceuticals, Inc., priority 2008, dated 2015).
Like-named read-outs stand apart in the source and are kept apart here.

Legend:
[1] = system: IL-1β production by human PBMCs; assay: IL-1β production by LPS- or PHA-stimulated PBMCs; type: cell-based
[2] = system: IL-6 production by human PBMCs; assay: IL-6 production by LPS- or PHA-stimulated PBMCs; type: cell-based
[3] = system: IL-5 production by human PBMCs; assay: IL-5 production by LPS- or PHA-stimulated PBMCs; type: cell-based
shrews (Suncus murinus) = conditions: shrew (Suncus murinus), in vivo, po
all four PDE4 isoforms = assay: PDE4 isoform inhibition; type: biochemical
[4] = system: phosphodiesterase 4 (PDE4) enzyme derived from human U937 cells; assay: PDE4 enzyme activity (enzyme derived from human U937 cells); type: biochemical; conditions: versus substrate cAMP
Description: (§1) The structure-activity relationships of novel boron-containing anti-inflammatory agents was investigated.
(§2) Compounds were screened by a biochemical assay against PDE4 enzyme and cell-based cytokine release assays using PBMCs stimulated by LPS or phytohemagglutinin (PHA).

[5] = system: T1, phosphodiesterase 4 (PDE4) enzyme derived from human U937 cells; assay: as above; type: biochemical
T1 construct: PDE4 IC50; other: biochemical assay, PDE4 enzyme derived from human U937 cells; other: PDE4 in human U937 cells
Description: as §1, §2

hERG-channel = hERG-channel (Homo sapiens, UniProt Q12809); assay: hERG-channel block; type: biochemical; conditions: C17 at 1 μM
[6] = system: Salmonella typhimurium strains TA98, TA100, TA1535, and TA1537; assay: Bacterial mutagenicity assay with/without Aroclor-induced S9 (Salmonella); type: cell-based; conditions: up to 5000 μg per plate; presence or absence of Aroclor-induced S9 liver fraction
PDE1A3 = molecular target: T2, PDE1A3 (Homo sapiens, UniProt P54750); assay: PDE1 inhibition; type: biochemical
T2 construct: made in house; host or cells: baculoviral expression system

[7] = system: IL-23 production from human THP-1 macrophages; assay: IL-23 production by THP-1 cells stimulated with IFN-g and LPS; type: cell-based
PDE2 = molecular target: T3, PDE2 (Homo sapiens, UniProt O00408); assay: PDE2 inhibition; type: biochemical
T3 construct: made in house; host or cells: baculoviral expression system

[8] = system: IFN-γ secretion from PBMCs; assay: IFN-γ secretion from PBMCs stimulated with PHA; type: cell-based, human; conditions: PBMC
Description: as §2

[9] = system: TNF-α secretion from peripheral blood mononuclear cells (PBMCs); assay: TNF-α secretion from PBMCs stimulated by LPS; type: cell-based, human; conditions: PBMC
Description: as §2

MCP-1 and PGE2 = assay: Release of chemokine MCP-1 and PGE2; type: cell-based
Description: (§3) This activity is explained in part by the inhibition of phosphodiesterase-4 (PDE-4).

[10] = system: Escherichia coli strain WP2 uvrA; assay: Bacterial mutagenicity assay with/without Aroclor-induced S9 (E. coli); type: cell-based; conditions: up to 5000 μg per plate; presence or absence of Aroclor-induced S9 liver fraction
Sprague-Dawley rats = conditions: oral 30, 100, and 300 mg/kg/day, 14 consecutive days
[11] = system: TNF-α, IFN-γ, IL-1μ, IL-2, IL-4, IL-5, IL-6, IL-8, IL-10, IL-12, and IL-23; assay: Release of pro-inflammatory cytokines (summary statement); type: cell-based
Description: as §3

IL-5 = assay: Cytokine assay, IL-5 release from PBMC; type: cell-based; conditions: human PBMC, 20 ug/mL PHA, supernatant at 48 hours
In short: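 Cytokine released into the medium was the read-out. Thawed human peripheral blood mononuclear cells in RPMI 1640/10% FBS received test article at 0.01–10 μM, in triplicate wells.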

[12] = system: T4, PDE4 partially purified from human U-937 myeloid leukemia cells; assay: PDE4 Assay (enzyme from U-937 cells, [3H]cAMP); type: biochemical; conditions: PDE4 from U-937 cells, Tris buffer pH 7.5, 20 minutes at 25° C.
T4 construct: PDE4 partially purified from human U-937 myeloid leukemia cells was used

[13] = system: IL-10 production by human PBMCs; assay: IL-10 production by LPS- or PHA-stimulated PBMCs; type: cell-based
[14] = system: IL-2 secretion from PBMCs; assay: IL-2 secretion from PBMCs stimulated with PHA; type: cell-based, human; conditions: PBMC
Description: as §2

T2 sequence (P54750 whole entry): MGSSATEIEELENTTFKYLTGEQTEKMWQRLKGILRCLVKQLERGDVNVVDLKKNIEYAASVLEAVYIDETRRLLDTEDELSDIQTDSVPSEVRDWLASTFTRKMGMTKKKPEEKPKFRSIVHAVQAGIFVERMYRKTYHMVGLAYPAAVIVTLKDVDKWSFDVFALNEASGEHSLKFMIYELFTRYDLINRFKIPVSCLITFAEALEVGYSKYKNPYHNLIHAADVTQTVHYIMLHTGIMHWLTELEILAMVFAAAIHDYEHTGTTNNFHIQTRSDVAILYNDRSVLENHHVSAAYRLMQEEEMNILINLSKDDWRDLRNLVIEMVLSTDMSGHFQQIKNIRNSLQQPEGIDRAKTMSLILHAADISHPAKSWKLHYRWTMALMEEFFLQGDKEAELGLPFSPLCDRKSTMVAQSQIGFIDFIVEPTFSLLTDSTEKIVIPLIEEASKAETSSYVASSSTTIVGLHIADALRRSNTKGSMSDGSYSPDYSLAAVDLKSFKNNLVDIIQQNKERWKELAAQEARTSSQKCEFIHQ
Chain of hERG-channel (Q12809 whole entry): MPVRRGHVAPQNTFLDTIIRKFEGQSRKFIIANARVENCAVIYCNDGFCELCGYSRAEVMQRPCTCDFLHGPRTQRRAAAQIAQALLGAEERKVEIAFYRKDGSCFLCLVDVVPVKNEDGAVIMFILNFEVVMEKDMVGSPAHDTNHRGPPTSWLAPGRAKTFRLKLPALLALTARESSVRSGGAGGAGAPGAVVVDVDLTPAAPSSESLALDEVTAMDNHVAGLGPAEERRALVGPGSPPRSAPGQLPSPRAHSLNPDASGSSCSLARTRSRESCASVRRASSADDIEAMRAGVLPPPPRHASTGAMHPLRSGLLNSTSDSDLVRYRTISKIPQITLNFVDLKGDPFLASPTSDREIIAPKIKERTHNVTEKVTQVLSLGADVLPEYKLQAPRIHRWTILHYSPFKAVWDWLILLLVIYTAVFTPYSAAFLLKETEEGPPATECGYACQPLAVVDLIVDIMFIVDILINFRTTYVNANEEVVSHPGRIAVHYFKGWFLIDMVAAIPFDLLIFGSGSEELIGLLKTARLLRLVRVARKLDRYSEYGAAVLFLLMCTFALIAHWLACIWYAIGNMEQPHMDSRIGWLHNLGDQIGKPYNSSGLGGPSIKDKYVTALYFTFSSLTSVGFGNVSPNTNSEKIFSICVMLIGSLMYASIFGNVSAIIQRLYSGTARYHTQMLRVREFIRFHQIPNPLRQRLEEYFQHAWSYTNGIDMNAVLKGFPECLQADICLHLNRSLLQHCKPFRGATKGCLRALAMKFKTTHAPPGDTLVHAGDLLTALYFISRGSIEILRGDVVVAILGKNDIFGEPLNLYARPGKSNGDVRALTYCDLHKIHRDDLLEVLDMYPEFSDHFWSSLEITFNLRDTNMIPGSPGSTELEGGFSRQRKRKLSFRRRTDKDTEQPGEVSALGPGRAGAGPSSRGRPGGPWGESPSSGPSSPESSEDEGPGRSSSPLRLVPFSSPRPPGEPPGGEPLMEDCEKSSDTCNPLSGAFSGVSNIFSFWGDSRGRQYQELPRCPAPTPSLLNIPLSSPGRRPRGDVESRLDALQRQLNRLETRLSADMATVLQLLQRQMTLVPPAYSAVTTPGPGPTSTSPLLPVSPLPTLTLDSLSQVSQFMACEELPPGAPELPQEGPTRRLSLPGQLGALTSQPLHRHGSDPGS
T3 sequence (O00408 whole entry): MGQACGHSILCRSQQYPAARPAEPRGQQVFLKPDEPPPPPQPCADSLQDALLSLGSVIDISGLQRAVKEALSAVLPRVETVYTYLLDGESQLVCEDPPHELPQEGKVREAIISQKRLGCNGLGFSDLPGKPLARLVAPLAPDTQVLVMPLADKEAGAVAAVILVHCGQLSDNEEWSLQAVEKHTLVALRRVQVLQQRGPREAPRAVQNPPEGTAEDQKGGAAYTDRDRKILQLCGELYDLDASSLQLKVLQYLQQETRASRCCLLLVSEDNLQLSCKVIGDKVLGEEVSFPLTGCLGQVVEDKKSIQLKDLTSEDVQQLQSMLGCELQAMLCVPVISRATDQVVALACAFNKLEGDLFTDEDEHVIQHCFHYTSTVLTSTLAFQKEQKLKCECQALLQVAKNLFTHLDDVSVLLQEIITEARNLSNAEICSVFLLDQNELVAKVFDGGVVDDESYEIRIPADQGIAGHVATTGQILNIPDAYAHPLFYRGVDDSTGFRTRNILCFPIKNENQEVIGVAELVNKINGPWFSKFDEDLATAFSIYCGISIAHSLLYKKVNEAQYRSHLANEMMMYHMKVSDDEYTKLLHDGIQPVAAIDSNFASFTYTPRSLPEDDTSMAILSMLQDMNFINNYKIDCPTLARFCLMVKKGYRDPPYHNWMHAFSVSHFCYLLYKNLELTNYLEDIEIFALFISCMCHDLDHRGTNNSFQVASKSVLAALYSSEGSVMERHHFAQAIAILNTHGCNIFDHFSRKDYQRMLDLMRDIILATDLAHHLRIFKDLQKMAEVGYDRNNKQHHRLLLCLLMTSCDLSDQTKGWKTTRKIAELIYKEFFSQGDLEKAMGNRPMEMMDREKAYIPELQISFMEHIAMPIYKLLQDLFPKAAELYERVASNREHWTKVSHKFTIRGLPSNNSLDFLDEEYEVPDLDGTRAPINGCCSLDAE

## N#Cc1ccc(Oc2ccc3c(c2)COB3O)cc1 [C17, 5-(4-cyanophenoxy)-1-hydroxy-1,3-dihydro-2,1-benzoxaborole]
[1]; PBMC, LPS- and PHA-induced cytokine production by human PBMCs, read-out: IC50 IL-1β (pro-inflammatory cytokines)
  IC50: > 30 µM
[1]; PBMCs
  effect on IL-1: not affected
[2]; PBMC, LPS- and PHA-induced cytokine production by human PBMCs, read-out: IC50 IL-6 (pro-inflammatory cytokines)
  IC50: > 30 µM
[2]; PBMCs
  effect on IL-6: not affected
[3]; PBMC, LPS- and PHA-induced cytokine production by human PBMCs, read-out: IC50 IL-5 (Th2 cytokines)
  IC50: 1 to 10 µM
[3]; PBMCs
  IL-5 inhibition, range in words: low micromolar range
Shrews (Suncus murinus)
  no-observed-effect level (NOEL), emesis: 10 mg/kg
All four PDE4 isoforms
  inhibition of PDE4 isoforms: inhibiting all four PDE4 isoforms equally
[4]
  mode of inhibition (enzyme kinetic analysis): competitive inhibitor
[5]; PDE4 in human U937 cells, read-out: PDE4 enzyme activity IC50
  IC50: 0.49 µM
[5]; biochemical assay, PDE4 enzyme derived from human U937 cells, read-out: PDE4 IC50
  IC50: 0.49 µM
hERG-channel
  hERG-channel blocker classification: low potency hERG-channel blocker
[6]
  mutagenic activity: no mutagenic activity
PDE1A3
  inhibition of PDE1: does not significantly inhibit
PDE1A3; standard: 8-methoxymethyl-IBMX
  IC50: 1 to 10 µM
[7]; human THP-1 macrophages, read-out: IL-23 production IC50
  IC50: 2.25 µM
[7]; human THP-1 monocytic cells stimulated with IFN-g and LPS, read-out: IC50 IL-23*
  IC50: 1 to 10 µM
PDE2
  inhibition of PDE2: does not significantly inhibit
[8]; Homo sapiens, PBMCs stimulated with PHA, read-out: IFN-γ secretion IC50
  IC50: 0.27 µM
[8]; LPS- and PHA-induced cytokine production by human PBMCs, read-out: IC50 IFNg (Th1 cytokines)
  IC50: < 1 µM
[9]; Homo sapiens, PBMCs stimulated by LPS, read-out: TNF-α secretion IC50
  IC50: 0.77 µM
[9]; LPS- and PHA-induced cytokine production by human PBMCs, read-out: IC50 TNFα (pro-inflammatory cytokines)
  IC50: < 1 µM
MCP-1 and PGE2
  release of the chemokine MCP-1 and PGE2: inhibits the release
[10]
  mutagenic activity: no mutagenic activity
Sprague-Dawley rats
  mortality, clinical pathology, microscopic or macroscopic changes: No mortality, adverse effects on clinical pathology, or microscopic or macroscopic changes were observed in any dose group
[11]
  release of pro-inflammatory cytokines including TNF-α, IFN-γ, IL-1μ, IL-2, IL-4, IL-5, IL-6, IL-8, IL-10, IL-12, and IL-23: inhibition of the release
IL-5
  IC50: 1 to 4 µM
[12]
  IC50: < 1 µM
[13]; PBMC, LPS- and PHA-induced cytokine production by human PBMCs, read-out: IC50 IL-10 (Th2 cytokines)
  IC50: < 1 µM
[13]; PBMCs
  IL-10 inhibition, range in words: low micromolar range
[14]; Homo sapiens, PBMCs stimulated with PHA, read-out: IL-2 secretion IC50
  IC50: 0.46 µM
[14]; LPS- and PHA-induced cytokine production by human PBMCs, read-out: IC50 IL-2 (Th1 cytokines)
  IC50: < 1 µM
